The values that follow come from patent US20200101034A1, “RAPID AND CONTROLLED DELIVERY OF COMPOSITIONS WITH RESTORED ENTOURAGE EFFECTS” (RECEPTOR HOLDINGS, INC., priority 2017, published 2020).

The structures appear in SMILES notation. Where two headings read alike, the source gives them in different places.

A short description of data set [1]: Cannabis/SNAC oral rat pharmacokinetic (PK) study. It counts as in vivo, rats. The conditions noted are these: for AUC(0-t) / Tmax: rat, plasma, po; for AUC(0-t): read-out: AUC0-Tlast; for Tmax: read-out: time to reach the mean maximum plasma concentration (Tmax); for AUC0-Tlast versus the cannabis alone group: rats, oral, same cannabis extract dose in the presence of SNAC (250 mg/kg or 500 mg/kg). Here is the method:
Example 4. Summary of cannabis/SNAC oral rat pharmacokinetic (PK) study.
Methods. Animals were dosed on Day 1 and a series of blood samples were collected over a period of 4 hours post dose for pharmacokinetic evaluation. Animals were euthanized following collection of their last blood sample.

Data set [2] relates to study participants. Nature of the data set: Onset and duration of action of orally administered cannabis/SNAC composition at a low SNAC dose (100 mg). It counts as in vivo, human. The conditions noted are these: 100 mg SNAC with cannabis concentrate, oral. Here is the method:
Example 2. […] This study was designed to assess the utility of SNAC in enabling a rapid-acting oral form of cannabis at a low dose.
Selection of Participants. Three study participants were recruited to ingest cannabis compositions and record the onset, duration, and intensity of cannabis-induced euphoria and/or dysphoria.
(§1) Formulations. The selected cannabis concentrate is commercially available and was provided to participants in an ethanol solution. The concentrate contains 8 mg THC per dose. It was selected because it contains a high percentage of THC, which provides a noticeable effect on user- reported “euphoria”.
(§2) Methods. For the Control experiment, each participant mixed the cannabis concentrate with 15 ml (one tablespoon) of aqueous ethanol, and immediately swallowed the mixture.
(§3) For both the Control experiment and the Test experiment, each participant recorded the time of dose administration, the time of onset of euphoria and/or dysphoria, and the observed level of euphoria and/or dysphoria in fifteen minute intervals for five hours following administration of the cannabis dose. Euphoria and dysphoria were reported using a scale value, in a range from 1-10.
Results. The results are combined with the data from Example 1 and are reported for all participants in FIG. 8.

Data set [3] deals with study participants. Nature of the data set: Onset and duration of action of orally administered cannabis/SNAC composition (200 mg SNAC), participant-reported euphoria/dysphoria. As to conditions: 200 mg SNAC with cannabis concentrate, oral. It counts as in vivo, human. As to the method:
This study was designed to assess the utility of SNAC in enabling a rapid-acting oral form of cannabis.
Selection of Participants. Six study participants were recruited to ingest cannabis compositions and record the onset, duration, and intensity of cannabis-induced euphoria and/or dysphoria.
as §1, §2, §3

In the case of `C=C(C)[C@@H]1CCC(C)=C[C@H]1c1c(O)cc(CCCCC)cc1O` [CBD, cannabidiol], in data set [1], the AUC(0-t) is 13.2 to 382 ng·h/mL, the Tmax fell in the range of 0.25 to 1 h and the “AUC0-Tlast versus the cannabis alone group” value was “comparable”.

In the case of `CCCCCc1cc(O)c2c(c1)OC(C)(C)[C@@H]1CCC(C)=C[C@@H]21` [THC, delta-9-tetrahydrocannabinol], the Tmax stood at 1 h in data set [1] (25 mg/kg) and 2 h in data set [1] (50 mg/kg). In data set [1], the AUC(0-t) is 171 to 1260 ng·h/mL. The “AUC0-Tlast versus the cannabis alone group” value in data set [1] is given as “comparable”.

In the case of `O=C([O-])CCCCCCCNC(=O)c1ccccc1O.[Na+]` [SNAC, sodium N-[8-(2-hydroxybenzoyl)amino] caprylate], the “effect of the absorption enhancer on the duration of action of cannabis” value in the data set with study participants [2] and with study participants [3] was “no effect” throughout.
